Tested on: GCP purified from post-natal day 4 rat cerebellum
Test: Ki-67 proliferation of electroporated GCP overexpressing BOC, with Shh and Smo inhibitor
Format: cell-based
Conditions: 10 nM Shh plus SANT-1
Experimental: GCP purified from post-natal day 4 rat cerebellum were co-electroporated with either a combination of BOC with a red fluorescence protein expressing plasmids (BOC) or with a control empty plasmid with a red fluorescence protein expressing plasmid (control). Proliferation was evaluated by measuring the percentage of Ki-67 positive cells among electroporated cells in absence or in presence of sonic hedgehog (Shh) and also in presence of Shh in combination with an inhibitor of Smo (SANT-1);
GCP purified from post-natal day 4 rat cerebellum were co-electroporated with either a combination of a plasmid containing a nucleic acid encoding murine BOC with a red fluorescent protein (RFP)-expressing plasmids (BOC) (both genes under the control of the chicken beta-actin promoter) or with a control empty plasmid with a red fluorescent protein-expressing plasmid (control). Proliferation was evaluated by measuring the percentage of Ki-67-positive cells among electroporated cells in the presence or absence of Shh. In addition, the role of the Hh signalling protein Smoothened (Smo) was tested using an inhibitor of Smo (SANT-1) in combination with Shh.

Cc1nn(-c2ccccc2)c(C)c1/C=N/N1CCN(Cc2ccccc2)CC1 [SANT-1]
effect on BOC-mediated increase in percentage of Ki-67-positive cells: prevents this increase
